Measured values: ChEMBL document CHEMBL3301448, “MMV Malaria Box screening against Toxoplasma gondii and Entamoeba histolytica”

How the values were obtained:
Toxoplasma gondii = assay: MMV: A total of 100ul of inoculum was added to each well (parasite/cell ratio, ~10:1; final volume, 200 ul). Six hours after inoculation, nonadherent parasites were removed, and 100 ul of complete DMEM (1% penicillin-streptomycin, 3% FBS) supplemented with inhibitors at different concentrations (2-fold serial dilutions starting from 30 uM) was added to all except the negative-control wells. Positive controls, consisting of pyrimethamine (PYR) and sulfadiazine (SDZ) (20-mg/ml stocks in DMSO), were tested at a 2mg/ml final concentration. Each test was performed in triplicate.; assay type: functional, organism-based; settings: 6 h
Entamoeba histolytica = assay: MMV: Primary screening was performed with each compound at a 30 uM final concentration and in triplicate in sealed 96-well polystyrene microtiter plates. Parasite inocula (100 ul) comprising 20000 parasites/ml were added to each well and grown at 37 degrees C in a humidified atmosphere of 5% CO2 for 72 h. Positive controls consisted of metronidazole at 1 mg/ml. The growth of E. histolytica trophozoites in each well was determined microscopically by measuring the diameters of the confluent cells in drug-containing wells relative to those in the nega- tive-control wells.; assay type: functional, organism-based

| Compound | IC50 (Toxoplasma gondii) [µM] | IC50 (Entamoeba histolytica) [µM] |
| --- | --- | --- |
| COc1ccc(C(=O)C(CCC(CNC(C)(C)C)C(=O)c2ccc(OC)cc2)CNC(C)(C)C)cc1 (configuration not stated) | 8.23 | > 30 |
| c1ccc(-c2ccc(-c3nc4ccccc4[nH]3)cc2)cc1 | > 30 | > 30 |
| CCOc1cc2c(cc1OCC)C(c1cc(Cl)c(O)c(OCC)c1)NCC2 (configuration not stated) | > 30 | > 30 |
| O=[N+]([O-])c1ccc(C=NNc2nc3ccccc3[nH]2)cc1 | > 30 | > 30 |
| COc1ccc(N2CCN(C(CNC(=O)C3CCCCC3)c3ccc4c(c3)OCO4)CC2)cc1 (configuration not stated) | 26.6 | > 30 |
| FC(F)(F)c1cccc(Nc2nc(-c3ccccc3)nc3ncccc23)c1 | > 30 | > 30 |
| COc1cc(SC)ccc1C(=O)N1CCCC(C)C1 (configuration not stated) | > 30 | > 30 |
| COCCNCC(O)Cn1c2ccc(Cl)cc2c2cc(Cl)ccc21 (configuration not stated) | > 30 | > 30 |
| CCOc1ccc(-n2cc(-c3ccccc3)c3c(SCc4cc(C)ccc4C)ncnc32)cc1 | 11.2 | > 30 |
| COc1ccc2nc(C)cc(Nc3cccc(O)c3)c2c1 | > 30 | > 30 |
| Brc1ccc(Nc2nc3ccccc3nc2Nc2ccc(Br)cc2)cc1 | > 30 | > 30 |
| CCOC(=O)c1c(C)n(-c2ccc(Cl)cc2)c2ccc(OC(=O)C=Cc3ccccc3)cc12 | > 30 | 10.7 |
| CCOc1cccc(C(=O)Nc2ccc(-c3nc4ccccc4[nH]3)cc2)c1 | > 30 | > 30 |
| O=C(Nc1ccc(-c2nc3cc4ccccc4cc3[nH]2)cc1)c1cccc(Br)c1 | > 30 | > 30 |
| COc1ccc(C(=O)NC(c2ccc(Cl)cc2Cl)c2cc(Cl)c3cccnc3c2O)cc1 (configuration not stated) | > 30 | > 30 |
| COc1cccc(C(=O)Nc2ccc(-c3nc4ccccc4[nH]3)cc2)c1 | > 30 | > 30 |
| Cc1[nH]c(-c2ccc(F)cc2)cc1C(=O)NC1CCN(Cc2ccccc2)CC1 | > 30 | > 30 |
| CN(C)CCCNCc1ccc(-c2ccc(F)c(Cl)c2)o1 | > 30 | > 30 |
| CCOc1ccccc1CN1CCc2nc3cc(C(C)(C)C)nn3c(O)c2C1 | > 30 | > 30 |
| O=C(O)C1Cc2c([nH]c3ccccc23)C(c2ccc(Cl)cc2Cl)N1 (configuration not stated) | > 30 | > 30 |
| Cn1c(=O)c2cc(C(=O)NCCCN3CCCCCC3)sc2c2ccccc21 | > 30 | > 30 |
| COc1ccc2nc(C)cc(Nc3ccccc3O)c2c1 | > 30 | > 30 |

| Compound | IC50 (Toxoplasma gondii) [µM] | IC50 (Entamoeba histolytica) [µM] |
| --- | --- | --- |
| CCOc1c(Br)cc(C2C(C(=O)OC)=CN(C)C=C2C(=O)OC)cc1OC | > 30 | > 30 |
| COc1ccc(-c2cc3c(SCC(=O)Nc4cc(C(F)(F)F)ccc4Cl)nccn3n2)cc1 | > 30 | > 30 |
| OC(CNCc1ccccc1)Cn1c2ccccc2c2ccccc21 (configuration not stated) | > 30 | > 30 |
| Oc1ccc(Cl)cc1CNc1nc2ccccc2[nH]1 | 26.8 | > 30 |
| Clc1ccc2[nH]c3c(NCCCN4CCOCC4)ncnc3c2c1 | > 30 | > 30 |
| c1ccc2cc3c(Nc4ccc(N5CCOCC5)cc4)ccnc3cc2c1 | > 30 | 15.6 |
| COc1ccccc1C(=O)ON=C(N)Cc1cccc2ccccc12 | > 30 | > 30 |
| CC1CN(C(=O)c2sc3ccccc3c2Cl)CC(C)O1 (configuration not stated) | > 30 | > 30 |
| Cc1ccc(-c2cc3c(nn2)-c2ccccc2C3=O)cc1 | > 30 | > 30 |
| COc1ccccc1N1CCN(C(CNS(=O)(=O)c2ccc(Cl)cc2)c2cccnc2)CC1 (configuration not stated) | > 30 | > 30 |
| CCOc1cc(Br)c(C(C)NC(=O)c2cccc(OC)c2)cc1OCC (configuration not stated) | > 30 | > 30 |
| CCN1CCN(Cc2ccc(NC(=O)c3cc4ccc5cccnc5c4[nH]3)cc2)CC1 | 3.85 | > 30 |
| CCC1(C)CC(CCNCc2ccccc2O)(c2ccc(C)cc2)CCO1 (configuration not stated) | > 30 | > 30 |
| O=C(Nc1ccc(N2CCCCC2)c(Cl)c1)c1ccc(Br)o1 | > 30 | > 30 |
| O=C(Nc1cccc(C(F)(F)F)c1)c1cc(Cl)ccc1O | > 30 | > 30 |
| Cc1ccc(-c2cc(C(=O)Nc3ccc(S(=O)(=O)N4CCCCC4)cc3)[nH]n2)c(O)c1 | > 30 | > 30 |
| N=c1n(CCN2CCCCC2)c2ccccc2n1CC(=O)c1ccc(Cl)c(Cl)c1 | > 30 | > 30 |
| CN(C)CCNc1cc(-c2ccccc2)nc2ccccc12 | 3.05 | > 30 |
| CCCCC(O)(c1ccc(Cl)cc1)C(CN1CCOCC1)c1ccc(Cl)cc1 (configuration not stated) | > 30 | > 30 |
| COc1ccc(C2NCCc3c2[nH]c2ccccc32)cc1CN1CCN(c2ccc(F)cc2)CC1 (configuration not stated) | > 30 | > 30 |
| CCCOCc1cc(CN2CCN(c3cccc(Cl)c3)CC2)c(O)c2ncccc12 | > 30 | > 30 |
| CCN(CC)CCNc1ccnc2cc(Cl)ccc12 | > 30 | > 30 |

| Compound | IC50 (Toxoplasma gondii) [µM] | IC50 (Entamoeba histolytica) [µM] |
| --- | --- | --- |
| CCOc1ccc(-c2nonc2NC(=O)c2cccc(C)c2)cc1OCC | > 30 | > 30 |
| Cc1cc(=O)oc2c1ccc1oc(C(=O)c3ccccc3)c(C)c12 | > 30 | > 30 |
| O=C(CSc1ccc2nnc(-c3cccc(F)c3)n2n1)Nc1ccc2c(c1)OCO2 | > 30 | > 30 |
| CCOC(=O)c1c(C)n(-c2ccccc2)c2ccc(OC(=O)c3cc(OC)c(OC)c(OC)c3)cc12 | > 30 | > 30 |
| CCOC(=O)c1cnc2ccc(Cl)cc2c1NCCCN(C)C | > 30 | > 30 |
| N=c1n(CCN2CCCCC2)c2ccccc2n1CC(O)c1cccc(Br)c1 (configuration not stated) | > 30 | > 30 |
| CC(=O)Nc1nnc(SCc2c(C)cc(C(C)(C)C)cc2C)s1 | > 30 | > 30 |
| OC1=C2C(=Nc3ccccc3SC2c2ccc(Br)cc2)c2ccccc21 (configuration not stated) | > 30 | > 30 |
| C=CCc1c(C)nc2ccccc2c1O | > 30 | > 30 |
| CCc1ccc(Nc2cc(C)c3ccc(O)cc3n2)cc1 | > 30 | > 30 |
| Cc1cc(Nc2ccc(C)c(Cl)c2)n2nc(C(F)(F)F)nc2n1 | > 30 | > 30 |
| O=C(c1ccccc1F)N(Cc1ccc(Cl)cc1)c1ccccn1 | > 30 | > 30 |
| COc1ccccc1NC1=C(N2CCCCC2)C(=O)c2ccccc2C1=O | 4.54 | > 30 |
| Cc1ccc(C(=O)c2oc3ccc4c(C)cc(=O)oc4c3c2C)cc1 | > 30 | > 30 |
| CCOC(=O)C1(Cc2ccccc2)CCN(Cc2cccc(OC)c2O)CC1 | > 30 | > 30 |
| Cc1cc(NCCN2CCCCC2)c2ccc3ccccc3c2n1 | > 30 | > 30 |
| CCOC(=O)c1ccc2nc(-c3ccccc3)cc(O)c2c1 | > 30 | > 30 |
| CN1C=C(c2ccc3ccccc3n2)C(c2c[nH]c3ccccc23)c2ccccc21 (configuration not stated) | > 30 | > 30 |
| CSc1ccccc1C(=O)Nc1nc(-c2ccccn2)cs1 | > 30 | > 30 |
| COc1ccc(C(=O)NC(c2ccccc2Cl)c2cc(Cl)c3cccnc3c2O)cc1 (configuration not stated) | > 30 | > 30 |
| COc1ccc(N2CCN(C(CNC(=O)CC(C)(C)C)c3ccc4c(c3)OCO4)CC2)cc1 (configuration not stated) | > 30 | > 30 |
| CN(C)c1ccc(C(O)(c2ccc(N(C)C)cc2)c2ccc(N(C)C)cc2)cc1 [METHYLROSANILINE] | > 30 | > 30 |

| Compound | IC50 (Toxoplasma gondii) [µM] | IC50 (Entamoeba histolytica) [µM] |
| --- | --- | --- |
| Cc1ccc(Cn2c(N3CCC(C(=O)NCc4cccs4)CC3)nc3ccccc32)cc1 | > 30 | > 30 |
| OC(Cn1nnc2ccccc21)Cn1c2ccc(Br)cc2c2cc(Br)ccc21 (configuration not stated) | > 30 | > 30 |
| O=C1c2ccccc2-c2nnc(-c3ccc(Br)cc3)cc21 | > 30 | > 30 |
| CCCN(CCC)CC(O)COc1ccccc1C(=O)Nc1ccccc1 (configuration not stated) | > 30 | > 30 |
| O=C(NC1CCN(Cc2ccccc2)CC1)c1cc(-c2cccnc2)nc2ccc(Cl)cc12 | > 30 | > 30 |
| O=c1c2c([nH]c3ccccc13)CCCC2 | > 30 | > 30 |
| COc1cc(CNCCc2ccc(Cl)cc2)cc(OC)c1O | > 30 | > 30 |
| Cc1ccc(OCCCCCCNCCO)c(C)c1 | > 30 | > 30 |
| O=C(Nc1ccc(C23CC4CC(CC(c5ccccc5)(C4)C2)C3)cc1)c1cccs1 | > 30 | > 30 |
| CCCCCCc1cc2cc(-c3csc(C=Cc4ccccc4)n3)c(=O)oc2cc1O | > 30 | > 30 |
| Oc1ccc2ccccc2c1CNc1nc2ccccc2[nH]1 | > 30 | > 30 |
| Cc1ccc(S(=O)(=O)c2c(COC(=O)c3cccc(C)c3)c(-c3ccccc3)nn2C)cc1 | > 30 | > 30 |
| CCCCNCC(O)(c1ccc(Cl)cc1)c1ccc(Cl)cc1 | > 30 | > 30 |
| CC(C)OCc1cc(CN2CCN(c3cccc(Cl)c3)CC2)c(O)c2ncccc12 | > 30 | > 30 |
| CCOc1cc(Cl)c(C(C)NC(=O)c2cccc(OC)c2)cc1OCC (configuration not stated) | > 30 | > 30 |
| N=c1c2ccccc2nnn1-c1cccc(C(F)(F)F)c1 | > 30 | > 30 |
| COc1ccc(C(=O)Nc2nonc2-c2ccc(OC)c(OC)c2)cc1Cl | > 30 | > 30 |
| Cc1cc(C)c2c(c1)OCN(Cc1ccccc1Cl)C2 | > 30 | > 30 |
| CCOC(=O)c1cn(CC)c2cc(N(C)CCc3ccc(OC)c(OC)c3)c(F)cc2c1=O | > 30 | > 30 |
| CCCCCCc1cc2cc(-c3nc4ccccc4[nH]3)c(=Nc3ccccc3C)oc2cc1O | 6.28 | > 30 |
